# According to patent US11208399B2, “NLRP3 inflammasome inhibitors” (Novartis AG, priority 2019, dated 2021):
# pIC50: −log10 of the molar value.
# Assays:
# [1] = system: NLRP3 inflammasome; assay: IL-1β secretion assay in PMA-differentiated THP-1 cells, nigericin-activated (HTRF); assay type: cell-based; conditions: Homo sapiens, 15 μM nigericin, 3 hours, read-out: IL-1β IC50
# Experimental: 10 μL supernatant was removed, and IL-1p levels were monitored using an HTRF assay (CisBio, #621L1PEC) according to manufacturers' instructions. Viability and pyroptosis was monitored with the addition of PrestoBlue cell viability reagent (Life Technologies, #A13261) directly to the cell culture plate.
# IC50 values were calculated from the plot of percentage of inhibition versus the inhibitor concentration by a logistics fit according to: y=A2+(A1−A2)/(1+(x/IC50)^p) where y is the %-inhibition at the inhibitor concentration, x. A1 is the lowest inhibition value, i.e. 0%, and A2 the maximum inhibition value, i.e. 100%. The exponent, p, is the Hill coefficient. The curve fitting was conducted with an internally developed software suite.
# NLRP3-dependent IL-1β secretion was stimulated in PMA-differentiated THP-1 cells by the addition of nigericin, and cytokines were measured in the […] after 3 hours. As discussed above, activation of the NLRP3 inflammasome requires both an NF-kB-dependent priming step and the addition of a NLRP3 activator.
# [2] = system: NF-kB-dependent TNF-α secretion; assay: TNF-α secretion assay in THP-1 cells (counter screen, HTRF); assay type: cell-based; conditions: Homo sapiens, Pam3CSK4-stimulated, 3 hours
# Summary of the method: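 THP-1 cells were treated with compound, then stimulated with 1 μg/mL LPS or 100 ng/mL Pam3CSK4 for 3 h. Secreted TNF-α in supernatant was measured by HTRF, with viability monitored in parallel. IC50 from logistic fit of % inhibition versus concentration with Hill coefficient.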
SMILES,pIC50 [1],pIC50 [2]
"Cc1cc(C(F)(F)F)cc(O)c1-c1ccc(NCc2ccccn2)nn1 [Ex 28, 3-Methyl-2-(6-((pyridin-2-ylmethyl)amino)pyridazin-3-yl)-5-(trifluoromethyl)phenol]",6.54,< 4.00
"Cc1cc(N[C@H]2C[C@@](C)(O)C2)nnc1-c1ccc(Cl)cc1O [Ex 68, 5-Chloro-2-(6-(((cis)-3-hydroxy-3-methylcyclobutyl)amino)-4-methylpyridazin-3-yl)phenol]",7.05,< 4.00
"Cc1cc(C(F)(F)F)cc(O)c1-c1ccc(NC(C)(C)CO)nn1 [Ex 79, 2-(6-((1-Hydroxy-2-methylpropan-2-yl)amino)pyridazin-3-yl)-3-methyl-5-(trifluoromethyl)phenol]",6.43,< 4.00
"Cc1cc(C(F)(F)F)cc(O)c1-c1ccc(NC[C@@H](F)C(C)(C)O)nn1 [Ex 60, (R)-2-(6-((2-Fluoro-3-hydroxy-3-methylbutyl)amino)pyridazin-3-yl)-3-methyl-5-(trifluoromethyl)phenol]",6.86,< 4.00
"Cc1cc(C(F)(F)F)cc(O)c1-c1ccc(OCC(C)(C)O)nn1 [Ex 19, 2-(6-(2-Hydroxy-2-methylpropoxy)pyridazin-3-yl)-3-methyl-5-(trifluoromethyl)phenol]",7.03,< 4.00
"Cc1cc(C(F)(F)F)cc(O)c1-c1ccc(NC[C@H]2CCCCN2)nn1 [Ex 20, (R)-3-Methyl-2-(6-((piperidin-2-ylmethyl)amino)pyridazin-3-yl)-5-(trifluoromethyl)phenol]",7.08,< 4.00
